# Key:
# Format in all cases: in vivo
# 'Leanri' mandarin trees = experiment: Fruit drop, 'Leanri' mandarin, Ashton, all plots with Falgro and girdling (Example 5); conditions: for # Fruit per Tree / % Change in # Fruit per Tree: 37 ppm, 21 days after 100% petal drop; for % Change in # Fruit per Tree: vs untreated control
# Procedure: Excelero™ SL was applied to mature ‘Leanri’ mandarin trees in a commercial orchard near Ashton (33°50′57″S, 20°02′15″E) in the Western Cape Province of South Africa. The experiment consisted of 5 trees per plot. S-ABA was applied at 37 ppm in the form of ProTone™ SG and Excelero™ SL and compared to an untreated control at 2.4 liters per tree. All plots received application of Falgro® at 70% and 90% petal fall and a girdling action. All treatments were applied with Villa 51® at a rate of 6 milliliters per 100 liters of water. Treatments were applied 21 days after 100% petal drop on 8 Nov. 2023. See Results in Table 5, below.
# [1] = system: 'Nadorcott' mandarin trees; experiment: Fruit drop after foliar spray, 'Nadorcott' mandarin, Piketberg (Example 3); conditions: for # Fruit per Tree / % Change in # Fruit per Tree: 28 days after 100% petal drop; for % Change in # Fruit per Tree: vs untreated control
# Procedure: ProTone™ SG or Excelero™ SL was applied to mature ‘Nadorcott’ mandarin trees in a commercial orchard near Piketberg (33°04′46.3″S 18°50′04.7″E) in the Western Cape Province of South Africa. The experiment consisted of 5 trees per plot. S-ABA in the form of ProTone™ SG was applied as a foliar spray at 18.5, 37 and 75 ppm and at 37 ppm in the form of Excelero™ SL and compared to an untreated control at 2.4 liters per tree. All treatments were applied with Villa 51® at a rate of 6 milliliters per 100 liters of water. Treatments were applied 28 days after 100% petal drop on 8 Nov. 2022. See Results in Table 3, below.
# 'Orri' mandarin trees [2] = experiment: Fruit drop after foliar spray, 'Orri' mandarin, Piketberg, open and shade-netted orchards (Example 2); conditions: 150 ppm; for # Fruit per Tree / % Change in # Fruit per Tree: ProTone SG, 28 days after 100% petal drop
# Procedure: ProTone™ SG was applied to mature ‘Orri’ mandarin trees in a commercial orchard near Piketberg (33°04′46.3″S 18°50′04.7″E) in the Western Cape Province of South Africa. Two trials were conducted, one in an orchard covered with permanent shade netting, and the other in an open orchard. The experiment consisted of 5 trees per plot for each of covered and open orchard. S-ABA was applied as a foliar spray at 150 ppm and compared to an untreated control at 3.4 liters per tree for the covered orchard and 2.8 liters per tree for the open orchard. All treatments were applied with Villa 51® at a rate of 6 milliliters per 100 liters of water. Treatments were applied 28 days after 100% petal drop on 29 Nov. 2021. See Results in Table 2, below.
# [3] = system: 'Nadorcott' mandarin trees; experiment: Fruit drop, 'Nadorcott' mandarin, Piketberg, all plots with ProGibb (Example 4); conditions: for # Fruit per Tree / % Change in # Fruit per Tree: Excelero SL; for % Change in # Fruit per Tree: vs untreated control
# Procedure: Excelero™ SL was applied to mature ‘Nadorcott’ mandarin trees in a commercial orchard near Piketberg (33°04′46.3″S 18°50′04.7″E) in the Western Cape Province of South Africa. The experiment consisted of 5 trees per plot. S-ABA was applied at 50 and 100 ppm in the form of Excelero™ SL and compared to an untreated control at 2.4 liters per tree. All plots received application of ProGibb® at 80% and 100% petal fall. All treatments were applied with Villa 51® at a rate of 6 milliliters per 100 liters of water. Treatments were applied 42 and 56 days after 100% petal drop (“DAP”) on 23 November and […], respectively. See Results in Table 4, below.
# [4] = system: 'Midknight Valencia' sweet orange trees; experiment: Fruit drop after foliar spray, 'Midknight Valencia' sweet orange, Porterville (Example 1); conditions: for # Fruit per Tree / % Change in # Fruit per Tree: ProTone SG, 28 days after 100% petal drop; for % Change in # Fruit per Tree: vs untreated control
# Procedure: ProTone™ SG was applied to mature ‘Midknight Valencia’ sweet orange trees in a commercial orchard near Porterville (33°08′37.54″S, 18°59′35.90″E) in the Western Cape Province of South Africa. The experiment consisted of a completely randomized design and consisted of 10 single-tree replicates. S-ABA was applied as a foliar spray at 75, 150 and 300 parts per million (“ppm”) and compared to an untreated control (only water) at 2 liters per tree. All treatments were applied with a non-ionic wetting agent (Villa 51® having the active ingredient isotridecanol and available from Villa Crop Protection (Pty) Ltd) at a rate of 6 milliliters per 100 liters of water. Treatments were applied 28 days after 100% petal drop on 31 Oct. 2019. See Results in Table 1, below.
# 'Orri' mandarin trees [5] = experiment: Fruit drop, 'Orri' mandarin, Mpumalanga (Example 6); conditions: for # Fruit per Tree / % Change in # Fruit per Tree: Excelero SL; for % Change in # Fruit per Tree: vs untreated control
# Source text: Excelero™ SL was applied to mature ‘Orri’ mandarin trees in a commercial orchard near Mpumalanga, South Africa. The experiment consisted of a completely randomized design. S-ABA was applied at 20, 40 and 80 ppm in the form of Excelero™ SL and compared to an untreated control. All treatments were applied with Villa 51® at a rate of 6 milliliters per 100 liters of water. Treatments were applied 14, 21 and 28 days after 100% petal drop (“DAP”). See Results in Table 6, below.
# [6] = system: '2PH seedless' lemon trees; experiment: Fruit drop, '2PH seedless' lemon, Mpumalanga (Example 8); conditions: for # Fruit per Tree / % Change in # Fruit per Tree: Excelero SL; for % Change in # Fruit per Tree: vs untreated control
# Source text: Excelero™ SL was applied to mature ‘2PH seedless’ lemon trees in a commercial orchard near Mpumalanga, South Africa. The experiment consisted of a completely randomized design. S-ABA was applied at 20, 40 and 80 ppm in the form of Excelero™ SL and compared to an untreated control. All treatments were applied with Villa 51® at a rate of 6 milliliters per 100 liters of water. Treatments were applied 14, 21 and 28 days after 100% petal drop (“DAP”). See Results in Table 8, below.
# [7] = system: 'Midnight Valencia' sweet orange trees; experiment: Fruit drop, 'Midnight Valencia' sweet orange, Mpumalanga (Example 7); conditions: for # Fruit per Tree / % Change in # Fruit per Tree: Excelero SL; for % Change in # Fruit per Tree: vs untreated control
# Source text: Excelero™ SL was applied to mature ‘Midnight Valencia’ sweet orange trees in a commercial orchard near Mpumalanga, South Africa. The experiment consisted of a completely randomized design. S-ABA was applied at 20, 40 and 80 ppm in the form of Excelero™ SL and compared to an untreated control. All treatments were applied with Villa 51® at a rate of 6 milliliters per 100 liters of water. Treatments were applied 14, 21 and 28 days after 100% petal drop (“DAP”). See Results in Table 7, below.
# [8] = 20, 40 and 80 ppm at each of 14, 21 and 28 days after 100% petal drop
substance,measurement,setting,value
(S)-abscisic acid [S-ABA],effect on fruit drop as compared to untreated control,'Leanri' mandarin trees; 37 ppm at 21 days after 100% petal drop,reduced fruit drop
same,# Fruit per Tree,'Leanri' mandarin trees; Excelero SL,430
same,% Change in # Fruit per Tree,'Leanri' mandarin trees; Excelero SL,28%
same,# Fruit per Tree,'Leanri' mandarin trees; ProTone SG,398
same,% Change in # Fruit per Tree,'Leanri' mandarin trees; ProTone SG,19%
same,# Fruit per Tree,"[1]; 18.5 ppm, ProTone SG",793
same,% Change in # Fruit per Tree,"[1]; 18.5 ppm, ProTone SG",3%
same,effect on fruit drop as compared to untreated control,[1]; 37 and 75 ppm,reduced fruit drop
same,# Fruit per Tree,"[1]; 37 ppm, Excelero SL",1010
same,% Change in # Fruit per Tree,"[1]; 37 ppm, Excelero SL",32%
same,# Fruit per Tree,"[1]; 37 ppm, ProTone SG",841
same,% Change in # Fruit per Tree,"[1]; 37 ppm, ProTone SG",10%
same,# Fruit per Tree,"[1]; 75 ppm, ProTone SG",909
same,% Change in # Fruit per Tree,"[1]; 75 ppm, ProTone SG",18%
same,effect on fruit drop as compared to untreated control,'Orri' mandarin trees [2],increased fruit drop
same,# Fruit per Tree,'Orri' mandarin trees [2]; no shade (open orchard),397
same,% Change in # Fruit per Tree,"'Orri' mandarin trees [2]; no shade (open orchard), vs untreated control (no shade)",−28%
same,# Fruit per Tree,'Orri' mandarin trees [2]; shade (permanent shade netting),82
same,% Change in # Fruit per Tree,"'Orri' mandarin trees [2]; shade (permanent shade netting), vs untreated control (shade)",−78%
same,effect on fruit drop as compared to untreated control,[3]; 50 and 100 ppm at both 42 and 56 days after 100% petal drop,reduced fruit drop
same,# Fruit per Tree,[3]; 50 ppm @ 42 DAP,412
same,% Change in # Fruit per Tree,[3]; 50 ppm @ 42 DAP,35%
same,# Fruit per Tree,[3]; 50 ppm @ 56 DAP,316
same,% Change in # Fruit per Tree,[3]; 50 ppm @ 56 DAP,3%
same,# Fruit per Tree,[3]; 100 ppm @ 42 DAP,387
same,% Change in # Fruit per Tree,[3]; 100 ppm @ 42 DAP,26%
same,# Fruit per Tree,[3]; 100 ppm @ 56 DAP,322
same,% Change in # Fruit per Tree,[3]; 100 ppm @ 56 DAP,5%
same,effect on fruit drop as compared to untreated control,[4]; 75 and 150 ppm,reduced fruit drop
same,# Fruit per Tree,[4]; 75 ppm foliar spray,413
same,% Change in # Fruit per Tree,[4]; 75 ppm foliar spray,11%
same,# Fruit per Tree,[4]; 150 ppm foliar spray,444
same,% Change in # Fruit per Tree,[4]; 150 ppm foliar spray,20%
same,effect on fruit drop as compared to untreated control,[4]; 300 ppm,increasing fruit drop
same,# Fruit per Tree,[4]; 300 ppm foliar spray,351
same,% Change in # Fruit per Tree,[4]; 300 ppm foliar spray,−5%
same,effect on fruit drop as compared to untreated control,'Orri' mandarin trees [5]; [8],reduced fruit drop
same,# Fruit per Tree,'Orri' mandarin trees [5]; 20 ppm @ 14 DAP,222
same,% Change in # Fruit per Tree,'Orri' mandarin trees [5]; 20 ppm @ 14 DAP,17%
same,# Fruit per Tree,'Orri' mandarin trees [5]; 20 ppm @ 21 DAP,257
same,% Change in # Fruit per Tree,'Orri' mandarin trees [5]; 20 ppm @ 21 DAP,36%
same,# Fruit per Tree,'Orri' mandarin trees [5]; 20 ppm @ 28 DAP,196
same,% Change in # Fruit per Tree,'Orri' mandarin trees [5]; 20 ppm @ 28 DAP,4%
same,# Fruit per Tree,'Orri' mandarin trees [5]; 40 ppm @ 14 DAP,222
same,% Change in # Fruit per Tree,'Orri' mandarin trees [5]; 40 ppm @ 14 DAP,17%
same,# Fruit per Tree,'Orri' mandarin trees [5]; 40 ppm @ 21 DAP,234
same,% Change in # Fruit per Tree,'Orri' mandarin trees [5]; 40 ppm @ 21 DAP,24%
same,# Fruit per Tree,'Orri' mandarin trees [5]; 40 ppm @ 28 DAP,250
same,% Change in # Fruit per Tree,'Orri' mandarin trees [5]; 40 ppm @ 28 DAP,32%
same,# Fruit per Tree,'Orri' mandarin trees [5]; 80 ppm @ 14 DAP,255
same,% Change in # Fruit per Tree,'Orri' mandarin trees [5]; 80 ppm @ 14 DAP,35%
same,# Fruit per Tree,'Orri' mandarin trees [5]; 80 ppm @ 21 DAP,213
same,% Change in # Fruit per Tree,'Orri' mandarin trees [5]; 80 ppm @ 21 DAP,13%
same,# Fruit per Tree,'Orri' mandarin trees [5]; 80 ppm @ 28 DAP,207
same,% Change in # Fruit per Tree,'Orri' mandarin trees [5]; 80 ppm @ 28 DAP,10%
same,effect on fruit drop as compared to untreated control,[6]; [8],reduced fruit drop
same,# Fruit per Tree,[6]; 20 ppm @ 14 DAP,107
same,% Change in # Fruit per Tree,[6]; 20 ppm @ 14 DAP,23%
same,# Fruit per Tree,[6]; 20 ppm @ 21 DAP,105
same,% Change in # Fruit per Tree,[6]; 20 ppm @ 21 DAP,21%
same,# Fruit per Tree,[6]; 20 ppm @ 28 DAP,112
same,% Change in # Fruit per Tree,[6]; 20 ppm @ 28 DAP,29%
same,# Fruit per Tree,[6]; 40 ppm @ 14 DAP,114
same,% Change in # Fruit per Tree,[6]; 40 ppm @ 14 DAP,31%
same,# Fruit per Tree,[6]; 40 ppm @ 21 DAP,121
same,% Change in # Fruit per Tree,[6]; 40 ppm @ 21 DAP,39%
same,# Fruit per Tree,[6]; 40 ppm @ 28 DAP,119
same,% Change in # Fruit per Tree,[6]; 40 ppm @ 28 DAP,37%
same,# Fruit per Tree,[6]; 80 ppm @ 14 DAP,109
same,% Change in # Fruit per Tree,[6]; 80 ppm @ 14 DAP,25%
same,# Fruit per Tree,[6]; 80 ppm @ 21 DAP,117
same,% Change in # Fruit per Tree,[6]; 80 ppm @ 21 DAP,34%
same,# Fruit per Tree,[6]; 80 ppm @ 28 DAP,125
same,% Change in # Fruit per Tree,[6]; 80 ppm @ 28 DAP,44%
same,effect on fruit drop as compared to untreated control,[7]; [8],reduced fruit drop
same,# Fruit per Tree,[7]; 20 ppm @ 14 DAP,239
same,% Change in # Fruit per Tree,[7]; 20 ppm @ 14 DAP,19%
same,# Fruit per Tree,[7]; 20 ppm @ 21 DAP,263
same,% Change in # Fruit per Tree,[7]; 20 ppm @ 21 DAP,31%
same,# Fruit per Tree,[7]; 20 ppm @ 28 DAP,245
same,% Change in # Fruit per Tree,[7]; 20 ppm @ 28 DAP,22%
same,# Fruit per Tree,[7]; 40 ppm @ 14 DAP,221
same,% Change in # Fruit per Tree,[7]; 40 ppm @ 14 DAP,10%
same,# Fruit per Tree,[7]; 40 ppm @ 21 DAP,246
same,% Change in # Fruit per Tree,[7]; 40 ppm @ 21 DAP,22%
same,# Fruit per Tree,[7]; 40 ppm @ 28 DAP,230
same,% Change in # Fruit per Tree,[7]; 40 ppm @ 28 DAP,14%
same,# Fruit per Tree,[7]; 80 ppm @ 14 DAP,255
same,% Change in # Fruit per Tree,[7]; 80 ppm @ 14 DAP,27%
same,# Fruit per Tree,[7]; 80 ppm @ 21 DAP,256
same,% Change in # Fruit per Tree,[7]; 80 ppm @ 21 DAP,27%
same,# Fruit per Tree,[7]; 80 ppm @ 28 DAP,285
same,% Change in # Fruit per Tree,[7]; 80 ppm @ 28 DAP,42%

# Source: patent publication US20250151727A1, “(S)-ABSCISIC ACID FOR REDUCING FRUIT DROP” (Valent BioSciences LLC, priority 2023, published 2025)
